Assay in all cases: Enzyme Inhibition Assay
One assay deals with Coagulation factor XI (Homo sapiens, UniProt P03951). Particulars: pH 7.4; 30 °C.
The target in another assay is Coagulation factor X (Homo sapiens, UniProt P00742).
The next assay deals with Prothrombin (Homo sapiens, UniProt P00734).

The results in this text go back to BindingDB's records for doi:10.1021/jm060978s (Daiichi Asubio Medical Research Laboratories, 2006).

A word on the IC50: it is the midpoint of a concentration-inhibition curve.

Chain of Coagulation factor XI (P03951 19-387 limits assumed): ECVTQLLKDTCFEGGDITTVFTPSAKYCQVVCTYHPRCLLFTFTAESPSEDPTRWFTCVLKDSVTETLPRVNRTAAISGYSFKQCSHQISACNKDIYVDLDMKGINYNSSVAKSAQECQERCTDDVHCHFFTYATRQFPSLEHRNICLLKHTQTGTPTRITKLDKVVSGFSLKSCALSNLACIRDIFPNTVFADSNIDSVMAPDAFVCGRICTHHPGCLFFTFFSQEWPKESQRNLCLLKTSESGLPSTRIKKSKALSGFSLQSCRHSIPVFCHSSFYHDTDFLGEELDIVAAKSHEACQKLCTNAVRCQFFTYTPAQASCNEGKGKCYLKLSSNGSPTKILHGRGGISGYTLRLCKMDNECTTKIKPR
Chain of Coagulation factor XI (P03951 388-625 limits assumed): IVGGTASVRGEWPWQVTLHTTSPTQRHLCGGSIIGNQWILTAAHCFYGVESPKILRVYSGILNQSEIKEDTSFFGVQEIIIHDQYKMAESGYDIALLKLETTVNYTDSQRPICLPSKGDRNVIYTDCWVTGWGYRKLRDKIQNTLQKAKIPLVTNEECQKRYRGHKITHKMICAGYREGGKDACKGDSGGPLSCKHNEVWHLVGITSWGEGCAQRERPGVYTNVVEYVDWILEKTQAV
Chain of Coagulation factor X (P00742 41-179 limits assumed): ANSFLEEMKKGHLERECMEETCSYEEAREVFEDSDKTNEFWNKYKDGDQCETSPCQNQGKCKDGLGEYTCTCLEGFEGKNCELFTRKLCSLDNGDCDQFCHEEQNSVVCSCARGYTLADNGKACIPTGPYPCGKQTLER
Chain of Coagulation factor X (P00742 235-488 limits assumed): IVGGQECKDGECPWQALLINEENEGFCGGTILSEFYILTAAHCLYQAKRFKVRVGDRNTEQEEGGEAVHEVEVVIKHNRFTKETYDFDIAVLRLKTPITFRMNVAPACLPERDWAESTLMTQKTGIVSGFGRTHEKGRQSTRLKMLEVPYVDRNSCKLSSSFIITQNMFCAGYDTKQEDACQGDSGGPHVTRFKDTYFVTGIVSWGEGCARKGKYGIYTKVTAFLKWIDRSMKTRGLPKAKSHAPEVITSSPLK

Take `CC(C)[C@H](NC(=O)[C@H](Cc1ccccc1)NC(=O)c1ccco1)C(=O)N[C@@H](CCCN=C(N)N)C(=O)c1nccs1` [(2S)-N-[(2S)-5-carbamimidamido-1-oxo-1-(1,3-thiazol-2-yl)pentan-2-yl]-2-[(2S)-2-(furan-2-ylformamido)-3-phenylpropanamido]-3-methylbutanamide]: on Coagulation factor XI, it took 2200 nM to reach half-maximal inhibition (IC50).

Take `CC(C)[C@H](NC(=O)[C@H](Cc1ccccc1)NC(=O)NCc1ccc(Cl)c(Cl)c1)C(=O)N[C@@H](CCCN=C(N)N)C(=O)c1nccs1` [(2S)-N-[(2S)-5-carbamimidamido-1-oxo-1-(1,3-thiazol-2-yl)pentan-2-yl]-2-[(2S)-2-({[(3,4-dichlorophenyl)methyl]carbamoyl}amino)-3-phenylpropanamido]-3-methylbutanamide]: the half-inhibitory concentration (IC50) is 14200 nM against Coagulation factor X, 93 nM against Coagulation factor XI and 6700 nM against Prothrombin.

Take `CC(C)[C@H](NC(=O)[C@H](Cc1ccccc1)NC(=O)NCc1ccc(F)cc1)C(=O)N[C@@H](CCCN=C(N)N)C(=O)c1nccs1` [(2S)-N-[(2S)-5-carbamimidamido-1-oxo-1-(1,3-thiazol-2-yl)pentan-2-yl]-2-[(2S)-2-({[(4-fluorophenyl)methyl]carbamoyl}amino)-3-phenylpropanamido]-3-methylbutanamide]: the IC50 on Coagulation factor XI is 160 nM; against Prothrombin it was 4300 nM.

On Coagulation factor XI, `CC(C)[C@H](NC(=O)[C@H](Cc1ccccc1)NS(=O)(=O)c1ccc(Cl)c(Cl)c1)C(=O)N[C@@H](CCCN=C(N)N)C(=O)c1nccs1` [(2S)-N-[(2S)-5-carbamimidamido-1-oxo-1-(1,3-thiazol-2-yl)pentan-2-yl]-2-[(2S)-2-[(3,4-dichlorobenzene)sulfonamido]-3-phenylpropanamido]-3-methylbutanamide] had a 50% inhibitory concentration (IC50) of 2300 nM. This lies in the single-digit micromolar range.

For the compound `CC(C)[C@H](NC(=O)[C@H](Cc1ccccc1)NC(=O)Cc1cccs1)C(=O)N[C@@H](CCCN=C(N)N)C(=O)c1nccs1` [(2S)-N-[(2S)-5-carbamimidamido-1-oxo-1-(1,3-thiazol-2-yl)pentan-2-yl]-3-methyl-2-[(2S)-3-phenyl-2-[1-(thiophen-2-yl)acetamido]propanamido]butanamide], half-maximal inhibition at Coagulation factor XI (IC50) required 2600 nM.

As for `CC(C)[C@H](NC(=O)[C@H](Cc1ccccc1)NC(=O)Nc1ccccc1)C(=O)N[C@@H](CCCN=C(N)N)C(=O)c1nccs1` [(2S)-N-[(2S)-5-carbamimidamido-1-oxo-1-(1,3-thiazol-2-yl)pentan-2-yl]-3-methyl-2-[(2S)-3-phenyl-2-[(phenylcarbamoyl)amino]propanamido]butanamide], the concentration for half-maximal inhibition (IC50) against Coagulation factor X is above 20000 nM; on Coagulation factor XI it was 1920 nM; on Prothrombin it was 935 nM.

Turning to `CCOC(=O)C(Cc1ccccc1)NC(=O)N[C@@H](Cc1ccccc1)C(=O)N[C@H](C(=O)N[C@@H](CCCN=C(N)N)C(=O)c1nccs1)C(C)C` (stereo partly drawn) [ethyl 2-({[(1S)-1-{[(1S)-1-{[(2S)-5-carbamimidamido-1-oxo-1-(1,3-thiazol-2-yl)pentan-2-yl]carbamoyl}-2-methylpropyl]carbamoyl}-2-phenylethyl]carbamoyl}amino)-3-phenylpropanoate], the half-inhibitory concentration (IC50) stood at 14300 nM on Coagulation factor X, 258 nM against Coagulation factor XI and 2100 nM on Prothrombin.

Regarding `CCOC(=O)C(CC(C)C)NC(=O)N[C@@H](Cc1ccccc1)C(=O)N[C@H](C(=O)N[C@@H](CCCN=C(N)N)C(=O)c1nccs1)C(C)C` (stereo partly drawn) [ethyl 2-({[(1S)-1-{[(1S)-1-{[(2S)-5-carbamimidamido-1-oxo-1-(1,3-thiazol-2-yl)pentan-2-yl]carbamoyl}-2-methylpropyl]carbamoyl}-2-phenylethyl]carbamoyl}amino)-4-methylpentanoate], the IC50 against Coagulation factor X turned out to be 15400 nM; against Coagulation factor XI it was 403 nM; against Prothrombin, 2100 nM.
